In patent publication US12473250B2, “Molecular design of new antibiotics and antibiotic adjuvants against MCR strains” (priority 2019, dated 2025):

System: colistin resistant MCR (+) E. Coli strains
Assay: Synergy study: colistin MIC in the presence of compound
Type: cell-based
Method in brief: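 After 24 hours, MIC was read as the lowest concentration without visible growth. Drugs were tested singly and in combination by CLSI broth microdilution, equal-amount colistin:LC compound mixtures serially diluted 2-fold at a fixed synergy concentration.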

CCN(CC)CCCCOc1ccc(/C=C/C(=O)c2ccc(OCCCCN(CC)CC)c(CC=C(C)C)c2O)cc1 [LC100]
Colistin MIC in the presence of LC100 (LC100 greater than 5 μg/ml, as low as): 0.0975 µg/mL | concentration at which the compound shows synergy with colistin (against mcr-1 bacteria): 2 µg/mL | synergy with colistin (against mcr-1 bacteria, in words): excellent synergy | Colistin MIC in the presence of the compound (strain 6075066346, MCR(+), compound at 2 μg): 1.56 µg/mL | Colistin MIC in the presence of the compound (strain 6075066346, MCR(+), compound at 3 μg): 0.78 µg/mL | Colistin MIC in the presence of the compound (strain 6075066346, MCR(+), compound at 5 μg (Table 2a: 5 ug/ml)): 0.195 µg/mL | Colistin MIC in the presence of the compound (strain 6075066346, MCR(+), compound at 10 μg (Table 2a: 10 ug/ml)): <0.098 µg/mL | Colistin MIC in the presence of the compound (strain 6075066346, MCR(+), compound at 10 μg (Table 2a: 10 ug/ml), listed as LC 100): <0.0975 µg/mL | Colistin MIC in the presence of the compound (strain 6083655967, MCR(+), compound at 2 μg): 1.56 µg/mL | Colistin MIC in the presence of the compound (strain 6083655967, MCR(+), compound at 3 μg): 0.39 µg/mL | Colistin MIC in the presence of the compound (strain 6083655967, MCR(+), compound at 5 μg (Table 2a: 5 ug/ml)): 0.195 µg/mL | Colistin MIC in the presence of the compound (strain 6083655967, MCR(+), compound at 10 μg (Table 2a: 10 ug/ml)): <0.098 µg/mL | Colistin MIC in the presence of the compound (strain 6083655967, MCR(+), compound at 10 μg (Table 2a: 10 ug/ml), listed as LC 100): <0.0975 µg/mL | Colistin MIC in the presence of the compound (strain 6103645107, MCR(+), compound at 2 μg): 1.56 µg/mL | Colistin MIC in the presence of the compound (strain 6103645107, MCR(+), compound at 3 μg): 0.78 µg/mL | Colistin MIC in the presence of the compound (strain 6103645107, MCR(+), compound at 5 μg (Table 2a: 5 ug/ml)): 0.195 µg/mL | Colistin MIC in the presence of the compound (strain 6103645107, MCR(+), compound at 10 μg (Table 2a: 10 ug/ml)): <0.098 µg/mL | Colistin MIC in the presence of the compound (strain 6103645107, MCR(+), compound at 10 μg (Table 2a: 10 ug/ml), listed as LC 100): <0.0975 µg/mL | Colistin MIC in the presence of the compound (strain 6123520276, MCR(+), compound at 2 μg): 1.56 µg/mL | Colistin MIC in the presence of the compound (strain 6123520276, MCR(+), compound at 3 μg): 0.78 µg/mL | Colistin MIC in the presence of the compound (strain 6123520276, MCR(+), compound at 5 μg (Table 2a: 5 ug/ml)): 0.195 µg/mL | Colistin MIC in the presence of the compound (strain 6123520276, MCR(+), compound at 10 μg (Table 2a: 10 ug/ml)): <0.098 µg/mL | Colistin MIC in the presence of the compound (strain 6123520276, MCR(+), compound at 10 μg (Table 2a: 10 ug/ml), listed as LC 100): <0.0975 µg/mL | Colistin MIC in the presence of the compound (strain 7013177695, MCR(+), compound at 2 μg): 1.56 µg/mL | Colistin MIC in the presence of the compound (strain 7013177695, MCR(+), compound at 3 μg): 0.39 µg/mL | Colistin MIC in the presence of the compound (strain 7013177695, MCR(+), compound at 5 μg (Table 2a: 5 ug/ml)): 0.195 µg/mL | Colistin MIC in the presence of the compound (strain 7013177695, MCR(+), compound at 10 μg (Table 2a: 10 ug/ml)): <0.098 µg/mL | Colistin MIC in the presence of the compound (strain 7013177695, MCR(+), compound at 10 μg (Table 2a: 10 ug/ml), listed as LC 100): <0.0975 µg/mL | Colistin MIC in the presence of the compound (strain 7023436560, MCR(+), compound at 2 μg): 1.56 µg/mL | Colistin MIC in the presence of the compound (strain 7023436560, MCR(+), compound at 3 μg): 0.39 µg/mL | Colistin MIC in the presence of the compound (strain 7023436560, MCR(+), compound at 5 μg (Table 2a: 5 ug/ml)): 0.195 µg/mL | Colistin MIC in the presence of the compound (strain 7023436560, MCR(+), compound at 10 μg (Table 2a: 10 ug/ml)): <0.098 µg/mL | Colistin MIC in the presence of the compound (strain 7023436560, MCR(+), compound at 10 μg (Table 2a: 10 ug/ml), listed as LC 100): <0.0975 µg/mL | Colistin MIC in the presence of the compound (strain 7023444207, MCR(+), compound at 2 μg): 1.56 µg/mL | Colistin MIC in the presence of the compound (strain 7023444207, MCR(+), compound at 3 μg): 0.39 µg/mL | Colistin MIC in the presence of the compound (strain 7023444207, MCR(+), compound at 5 μg (Table 2a: 5 ug/ml)): 0.195 µg/mL | Colistin MIC in the presence of the compound (strain 7023444207, MCR(+), compound at 10 μg (Table 2a: 10 ug/ml)): <0.098 µg/mL | Colistin MIC in the presence of the compound (strain 7023444207, MCR(+), compound at 10 μg (Table 2a: 10 ug/ml), listed as LC 100): <0.0975 µg/mL
